The target in experiment [1] is T1, "wild-type" ALDH2 enzyme (Homo sapiens, UniProt P05091).
T1 sequence (P05091 18-517): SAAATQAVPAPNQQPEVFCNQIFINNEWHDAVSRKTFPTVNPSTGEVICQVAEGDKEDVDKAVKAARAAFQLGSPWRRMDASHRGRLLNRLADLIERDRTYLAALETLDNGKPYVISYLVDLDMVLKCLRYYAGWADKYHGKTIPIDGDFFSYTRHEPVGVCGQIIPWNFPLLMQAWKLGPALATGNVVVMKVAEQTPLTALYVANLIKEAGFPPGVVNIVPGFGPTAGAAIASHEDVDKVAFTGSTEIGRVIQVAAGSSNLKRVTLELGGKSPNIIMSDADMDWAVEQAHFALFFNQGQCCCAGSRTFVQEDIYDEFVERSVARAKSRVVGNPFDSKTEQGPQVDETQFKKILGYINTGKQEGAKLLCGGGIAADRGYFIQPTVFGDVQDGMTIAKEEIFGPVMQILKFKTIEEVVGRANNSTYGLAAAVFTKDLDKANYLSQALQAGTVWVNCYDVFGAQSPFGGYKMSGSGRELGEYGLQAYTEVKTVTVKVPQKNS
Briefly: Screen and inhibition assay with wild-type ALDH2 enzyme. It is filed as biochemical. On the procedure: (§1) Compounds were screened using a method as depicted schematically in FIG. 2. Essentially, the reaction is carried out at 25° C. in 0.1 NaPPi buffer, pH 9.5, 2.4 mM NAD^+ and 10 mM acetaldehyde as the substrate. Enzymatic activity is measured by a reductive reaction of NAD^+ to NADH at 340 nm. Alternatively, the production of NADH can be coupled with another enzymatic reaction that consumes NADH and that provides for a detectable signal. An example of such an enzymatic reaction is a diaphorase-based reaction, which reduces resazurin to its […] fluorescent compound resorufin.
Compounds were screened, as described above, but using the “wild-type” ALDH2 enzyme. Of 63,000 compounds screened, six inhibitors were identified. Three of the compounds, referred to in FIGS. 8, 9, and 10 as #062923, #046072, and #032208, respectively, were assayed for their effect on ALDH2 enzymatic activity.

Experiment [2] deals with rat hearts. The experiment can be described thus: Ex vivo Langendorff model of myocardial infarction (no-flow ischemia and reperfusion). The note with it: ex vivo rat heart. The method, then: Ex vivo Langendorff preparations of rat hearts were used as a model to assess the damage incurred by no-flow ischemia and reperfusion injury. This is an experimental model that mimics the clinical situation of myocardial infarction in patients. Rat hearts were excised and cannulated on a Langendorff apparatus via the aorta. Retrograde perfusion was carried out using the standard oxygenated Kreb-Hensleit buffer maintained at 37° C. All hearts were stabilized by an initial 5- to 10-minute perfusion period followed by delivery of different cardioprotective agents or AldDH2 inhibitors for 10-30 minutes, depending on the reagent. Reagents used in some of the representative experiments including ethanol (50 mM), EPKC isozyme-selective activator and inhibitor peptides (1 μM), cyanamide (5 mM) and nitroglycerin (2 μM). […]
The degree of ischemia/reperfusion damage was measured by two independent commonly accepted parameters. […] In another assay, creatine phosphate kinase activity was measured from reperfusate of each heart collected during reperfusion. […] Homogenates from each heart was also obtained from a separate section of the identical sample and analyzed for aldehyde dehydrogenase enzymatic activity. Enzymatic activity was determined by a standard spectrophotometric method described above using acetaldehyde as the substrate and NAD^+ as a cofactor.

Experiment [3] deals with Male Wistar rats. The experiment can be described thus: In vivo LAD coronary artery ligation ischemia/reperfusion model. Also noted: species or system rat. To be noted: 8.5 mg/kg into the left ventricle five minutes before LAD ligation, p<0.01. The method, then: Male Wistar rats (250-300 g) were anesthetized by 3% isoflurane. The surgical procedures used for left anterior descending coronary artery (LAD) ligation are based on published protocols Animals were intubated, and ventilated with a Harvard rodent ventilator at a rate of 80 breaths per minute (5-15 mm Hg). Maintenance anesthesia was provided via 1% inhalational isoflurane, and body temperature was maintained at 37° C. using a rectal probe linked to a thermocoupled thermometer and an appropriate heating blanket. The heart was exposed by median sternotomy. Following a 20-minute period of stabilization, a ligature was placed around the LAD coronary artery, close to its origin from the aortic root. The ends of the ligature were passed through polyethylene tubing forming a small noose in which a syringe plunger was rested upon the myocardial surface. Coronary occlusion was achieved by pressing the tubing against the plunger while pulling on the ligature followed by clamping the tubing with a hemostat. Occlusion was determined by observation of immediate pallor of the left ventricular free wall. Reflow was achieved by release of the ligature. […]
At the end of reperfusion, hearts were excised and flushed with 0.9% saline. […] Serum was separated by centrifugation at 5000 g for 5 minutes on a tabletop centrifuge and creatine phosphate kinase (CPK) values were determined.

Experiment [4] addresses T2, ALDH2*2 mutant enzyme (Homo sapiens, UniProt P05091, E504K).
T2 sequence (P05091 18-517 E504K): T1 sequence (P05091 18-517) with E487K
Briefly: ALDH2 enzymatic assay, ALDH2*2 recombinant enzyme. It is filed as biochemical. The note with it: range of 10-200 μM. The method, then: (§2) BDDB derivative compounds, XO43 and XO44 as depicted in FIG. 12, were synthesized and tested in ALDH2 enzymatic assays. […] Enzymatic activity was measured by a reductive reaction of NAD^+ to NADH at 340 nm, as described in US 2005/0171043; and WO 2005/057213. […] (FIG. 12: n=3 for both right and left panels.)

Experiment [5] addresses T3, E487K variant of human ALDH2 (Homo sapiens, UniProt P05091, E504K).
T3 construct: made in house; host or cells: E. coli
T3 sequence (P05091 18-517 E504K): T1 sequence (P05091 18-517) with E487K
Briefly: Enzymatic activity of histidine-tagged E487K ALDH2 variant (NAD+ to NADH, acetaldehyde substrate). To be noted: over control (without activator compound) activity; n=3. It is filed as biochemical. The method, then: as §1
For example, a 120 μl reaction mixture for ALDH2 enzymatic activity comprises the following components:
43 μl 150 mM sodium pyrophosphate (NaPPi) buffer, pH 9.0;
15 μl 80 mM acetaldehyde;
1 μl of resazurin (0.2 mg/ml in H2O);
1 μl of diaphorase (1 unit, e.g., from Clostridium kluyveri);
2 μl of variant ALDH2 (e.g., 2 μl of variant ALDH2 at (0.5-2 μg/μl); and
28 μl of a solution comprising an agent to be tested, which agent has been resuspended in an appropriate solvent (e.g., an aqueous solution, DMSO, and the like).
Fluorescent detection of the above-described reaction as described in Table 1:
A fusion protein that includes the E487K variant of human ALDH2 (see amino acid sequence depicted in FIG. 1B) and a poly-histidine tag was synthesized and used in screens for ALDH2 agonists. An expression construct that encodes the […] variant fused in-frame to a poly-histidine (His) tag was introduced into E. coli, and expression was induced by the addition of isopropyl-1-thio-3-D-galactoside (IPTG); and His-tagged E487K ALDH2 variant was produced. The His-tagged E487K ALDH2 variant was purified from E. coli extract using a metal ion affinity column to bind the His-tagged E487K ALDH2 variant. His-tagged E487K ALDH2 variant was eluted from the column and used in screening assays to identify ALDH2 agonists.

Experiment [6] deals with T4, ALDH2*1 wild type enzyme (Homo sapiens, UniProt P05091).
T4 sequence (P05091 18-517): T1 sequence (P05091 18-517)
The experiment can be described thus: ALDH2 enzymatic assay, ALDH2*1 recombinant enzyme. It is filed as biochemical. The note with it: for increase in activity of ALDH2*1 wild type enzyme: at the higher concentration (range 10-200 μM), n=3; for ALDH2 activation, dose dependence: range of 10-200 μM. On the procedure: as §2

Numbering of substitutions follows the chain as printed.

What is called IC50 is the concentration at which inhibition is half-maximal. Higher therefore signals weaker potency. In experiment [1], `O=C(Nc1nc2c(Cl)c(Cl)ccc2s1)c1cccnc1` [#032208] registered an IC50 of 1620 nM.

`CCc1ccc(C(=O)CCN(C)C)cc1` [#046072]: inhibition in experiment [1] was half-maximal at 1140 nM (IC50).

For `COc1ccc(C(=O)CCN(C)C)cc1F` [#062923], the midpoint of inhibition in experiment [1], the IC50, lay at 630 nM.

In experiment [2] (ischemia-reperfusion, control 57.7±5.4%, p<0.05, n=7), `O=C(NCc1ccc2c(c1)OCO2)c1c(Cl)cccc1Cl` [Compound 1, N-(1,3-benzodioxol-5-ylmethyl)-2,6-dichlorobenzamide] displayed an infarct size of 41.6±4.1%. In experiment [2] (reperfusate, control 5530±329, P<0.05, n=8), the CPK release is 4396 Units/Liter. The “decrease of CPK release” value in experiment [3] (rat blood) is “about 57%”. Further, in experiment [3] (rat), the “decrease of the extent of myocardial infarction” value is recorded as “about 60%”. Besides, the “ALDH2 activation, dose dependence” value in experiment [4] and in experiment [6] was “dosage dependent effect” throughout. Moreover, in experiment [5], the “increase of enzymatic activity of the E487K ALDH2 variant over control” value (“increase of enzymatic activity … over control” below) was “approximately 900%”. For the same compound, the “increase in activity of ALDH2*1 wild type enzyme” value (“increase in activity” for short) in experiment [6] is on record as “about 180%”.

Consider `O=C(NCc1ccc2c(c1)OCO2)c1c(F)cccc1F` [Compound 2, N-(1,3-benzodioxol-5-ylmethyl)-2,6-difluorobenzamide], for which the “increase of enzymatic activity … over control” value in experiment [5] is recorded as “approximately 300%”.

On to `O=C(NCc1ccc2c(c1)OCO2)c1ccccc1Br` [Compound 3, N-(1,3-benzodioxol-5-ylmethyl)-2-bromobenzamide], for which, in experiment [5], the “increase of enzymatic activity … over control” value is given as around 600%.

Regarding `O=C(NCc1ccc2c(c1)OCO2)c1ccccc1I` [Compound 4, N-(1,3-benzodioxol-5-ylmethyl)-2-iodobenzamide], the “increase of enzymatic activity … over control” value in experiment [5] is around 700%.

In the case of `O=C(NCc1ccc2c(c1)OCO2)c1c(Cl)cncc1Cl` [XO43], the “ALDH2 activation, dose dependence” value in experiment [4] is given as “dosage dependent effect”. Moreover, in experiment [6], the “increase in activity” value was “about 180%” and the “ALDH2 activation, dose dependence” value is given as “dosage dependent effect”.

As to `Cc1cccc(C)c1C(=O)NCc1ccc2c(c1)OCO2` [XO44], the “ALDH2 activation, dose dependence” value in experiment [4] and in experiment [6] was “dosage dependent effect” each time. Further, in experiment [6], the “increase in activity” value is recorded as “about 180%”.

Source of the values: US9315484B2, “Mitochondrial aldehyde dehydrogenase-2 modulators and methods of use thereof” (The Board of Trustees of the Leland Stanford Junior …, priority 2007, dated 2016).
